Source: patent US9247737B2, “Method for disinfecting a surface” (Rohm and Haas Company, priority 2011, dated 2016)
Several values for one entry are separate records, joined by “and”; a condition that tells them apart may be missing. Equal entries are not always repeated.

Columns and labels:
Type in all cases: cell-based
[1] = system: Escherichia coli (E. coli—ATCC #10536); assay: Example 3: automated assessment of efficacy in surfactant base (2.85% sodium cocoyl glycinate + 1.85% sodium lauroamphoacetate, pH 10), 15 seconds exposure, DeltaOD read-out; settings: for MBC: in 2.85% sodium cocoyl glycinate + 1.85% sodium lauroamphoacetate solution at pH 10, 15 seconds; for 15 second bactericidal efficacy in combination with thymol (in words): in combination with thymol at concentrations lower than their MBC in the same surfactant formulation
Method: In these examples, the efficacy of combinations of thymol and acyclic terpene alcohols were tested in a surfactant cleansing formulation comprising 2.85% sodium cocoyl glycinate and 1.85% sodium lauroamphoacetate. […] Solutions were prepared such that the concentrations of the surfactant components and test actives were 1.1 times the final desired concentration in order to allow for dilution with the bacterial inoculum in the test. […] Solutions of the thymol and/or acyclic terpene alcohols were prepared at a maximum of 24 hours before testing. […] Tests were conducted using standard microtiter plate assays using an automated liquid handling system. 270 μl of the surfactant test solution was pipetted into each well of the microtitre plate (Nunc F Gamma irradiated 96F untreated microtitre plates of clear polystyrene) and 30 μl of the bacterial suspension was then added. After exactly 15 seconds of bacterial exposure, a 30 μl volume of bacterial cells was withdrawn and transferred to 270 μl of D/E quench solution. […] These provide a dual check of antimicrobial activity, as the OD450 reading is specific for the yellow colour of DIE quench when bacterial growth is observed, whereas OD590 is specific for the initial purple colour of the D/E quench which is retained if no bacterial growth is observed. […] Bacterial growth is observed as an increase in OD450 and a decrease in OD590. […] Four replicate measurements in the same plate have been made for each test system. The number of replicate wells showing either bacterial growth or no growth is also readily assessed by eye by following the colour change. Thymol and terpineol were tested both alone and in combination for comparison purposes.

[2] = system: Escherichia coli (E. coli ATCC #10536); assay: Example 2: high resolution MBC synergy assay in phosphate buffer containing 35% dipropylene glycol, 15 seconds; settings: for ΣFBC: calculated for the Ca/Cb pair, 1.00 for a component alone; for MBC of component alone (MBCA thymol, MBCB acyclic terpene alcohol): complete kill in 15 seconds, phosphate buffer with 35% DPG, about 1×10^8 bacteria per mL
Method: In this Example, a wide range of combinations of chemicals was tested by conducting high resolution MBC assays of selected acyclic terpene alcohols in the presence of various concentrations of thymol. The materials were sourced in the same way as for Example 1. Synergy tests were conducted using standard microtiter plate assays with phosphate buffer containing 35% dipropylene glycol (DPG). […] The MBC plate was inoculated one column at a time with the test microorganism. An aliquot of the inoculated well was transferred at 15 seconds to a plate containing a neutralizing agent (DIE Neutralizing Broth), mixed and held for 5 minutes before being transferred to a growth plate containing trypticase soy broth (TSB). The TSB plate was incubated at 37° C. and read for the presence/absence of growth at 24 hours. […] This microorganism is representative of natural contaminants in many consumer and industrial applications. […] The tables show the specific combinations of two components: results against the microorganism tested: the end-point activity in weight % measured by the MBC for the first component alone (thymol, MBCA), for the second component alone (acyclic terpene alcohol, MBCB), for the first component in the mixture (Ca) and for the second component in the mixture (Cb); the calculated ΣFBC value; and the range of synergistic ratios for each combination tested (first component t second component or A/B) against the particular microorganism.

[3] = system: Escherichia coli (10536 strain); assay: Example 1: 15 second contact-time bacterial kill assay (microtitre plate, D/E quench, TSA plate count); MBC and FBC analysis; settings: lowest concentration of the single active giving zero bacterial survival after 15 seconds; upper boundary
Method: The efficacies of antimicrobial agents can be usefully compared by determining the Minimum Biocidal Concentration (MBC). The MBC is defined as the lowest absolute concentration of the particular active that provides complete kill (zero bacterial growth).
1 ml of this overnight E. coli culture was transferred to 50 ml of fresh TSB broth and incubated at 37° C. at 150 rpm for ca. 4 hours. This culture was separated into equal volumes and centrifuged at 4000 rpm for 15 minutes, washed with sterile saline (0.85% NaCl), centrifuged once more and re-suspended in saline to give a final concentration of 0.8 OD620 equivalent to about 10^8 cells per millilitre for this particular organism. Here, OD620 indicates the absorbance of a sample in a cuvette of 1.0 cm path length at a wavelength of 620 nm. This bacterial stock was used for assaying against antimicrobial actives (in triplicate).
The following assay describes the testing of 8 materials using 6 dilutions across half of a 96-well micro titre plate (MTP). Using this approach it is possible to assay 16 actives (without replicates) with one full dilution plate, replicating this set up in two halves of the plate columns, 1-6 and 7-12.
This MTP was labelled as the “Screening plate”.
In another MTP, labelled as the “Dilution plate”, 270 μl of D/E neutralising solution from DIFCO Composition was added to column 1. The composition of the neutralising solution was as follows: pancreatic digest of casein, 5.0 g/L; Yeast Extract, 2.5 g/L; Dextrose, 10 g/L, sodium thioglycollate, 1.0 g/L, sodium thiosulphate, 6.0 g/L; sodium bisulphite, 2.5 g/L; Polysorbate 80, 5.0 g/L; lecithin 7.0 g/L; bromocresol purple, 0.02 g/L with a pH in the range 7.6±0.2.
270 μl of tryptone diluent solution was added to all the remaining wells of the Dilution MTP (columns 2-6).
After exactly 5 minutes in the D/E neutralising solution, 30 μl volumes were transferred from column 1 to column 2 of the Dilution MTP and mixed, before transferring further 30 μl volumes from column 2 into column 3. […]

C=CC(C)(O)CCC=C(C)C (racemic) [(+/−)-linalool, 3,7-dimethylocta-1,6-dien-3-ol]
MBC [1]: >0.5 % w/v | 15 second bactericidal efficacy in combination with thymol (in words) [1]: complete kill | ΣFBC [2]: 1.00 | MBC of component alone (MBCA thymol, MBCB acyclic terpene alcohol) [2]: 0.5 weight % | MBC (minimum biocidal concentration) [3]: 0.4 % w/v

C=C[C@@](C)(O)CCC=C(C)C [(−)-linalool, (S)-3,7-dimethylocta-1,6-dien-3-ol]
MBC (minimum biocidal concentration) [3]: 0.4 % w/v

CC1=CCC(C(C)(C)O)CC1 (stereo not drawn) [alpha-terpineol, reference compound]
MBC (minimum biocidal concentration) [3]: 0.4 % w/v

CC(C)=CCC/C(C)=C/CO [geraniol, (E)-3,7-dimethylocta-2,6-dien-1-ol]
MBC [1]: >0.5 % w/v and 0.5 % w/v | 15 second bactericidal efficacy in combination with thymol (in words) [1]: complete kill | ΣFBC [2]: 1.00 | MBC of component alone (MBCA thymol, MBCB acyclic terpene alcohol) [2]: 0.3 weight %

CC(C)=CCC/C(C)=C\CO [nerol, (Z)-3,7-dimethylocta-2,6-dien-1-ol]
ΣFBC [2]: 1.00 | MBC of component alone (MBCA thymol, MBCB acyclic terpene alcohol) [2]: 0.5 weight %

Cc1ccc(C(C)C)c(O)c1 [thymol, 2-isopropyl-5-methylphenol]
MBC [1]: 0.2 % w/v | ΣFBC [2]: 1.00 | MBC of component alone (MBCA thymol, MBCB acyclic terpene alcohol) [2]: 0.5 weight % and 0.4 weight %
